The values below are quoted from earlier work in article PMC6376154 (International Journal for Parasitology: Drugs and Drug …, 2019).

Each structure is given as a SMILES string. Like-named read-outs stand apart in the source and are kept apart here.

This series concerns P. falciparum 3D7 asexual blood stage. The following applies: cited from earlier work.
Where [1] appears, read: MMV Malaria Box data sheet, ref MMV data sheets.
Setting [2] is: MMV Malaria Box data sheet, ref MMV data sheets, read-out: EC50_nM.
[3] abbreviates: source GNF, ref ChEMBL_NTD, read-out: CHEMBL EC50.
[4] abbreviates: ChEMBL-NTD value per source (GNF, GSK, StJude), several values in a cell follow the order of the sources, read-out: CHEMBL EC50.
Setting [5] is: MMV Malaria Box sheet, ref MMV data sheets.
Where [6] appears, read: MMV Malaria Box data sheet (supplement mmc2.xls), ref MMV data sheet.
Setting [7] is: MMV Malaria Box data sheet (supplement mmc2.xls), ref MMV data sheet, read-out: EC50_nM.
[8] abbreviates: value(s) per source (GSK, GNF, StJude), separated by semicolon, ref ChEMBL-NTD, read-out: CHEMBL EC50.
[9] abbreviates: MMV Malaria Box sheet, ref MMV data sheets, read-out: EC50_nM.
Setting [10] is: source GSK, ref ChEMBL_NTD, read-out: CHEMBL EC50.

As for `CCCCCCOC(=O)C1=C(C)NC(=O)NC1c1ccccc1F` (stereo not shown) [MMV007686], the “percent_inh @ 5 uM” value under setting [1] is on record as 95%. Moreover, the EC50 by setting is: under setting [2], 106 nM; under setting [3], 6760 nM.

Take `COc1ccc(C(C)=O)cc1N1C(=O)C2C(C1=O)C1(c3ccccc3)C(=O)C2(c2ccccc2)C(c2ccc(C)cc2)=C1c1ccc(C)cc1` (stereo not shown) [MMV007695]: the “percent_inh @ 5 uM” value under setting [1] was 96%. The EC50 reads like this: under setting [2], 179 nM; under setting [3], 2460 nM.

Regarding `CCCCc1c(CCC)c(=N)c2ccccc2n1C` [MMV007764], the EC50 under setting [4] was 311 nM.

Consider `CCOc1ccccc1NC(=O)CN1CCN(C(=O)c2ccco2)CC1` [MMV007791], for which the “percent_inh @ 5 uM” value under setting [5] is given as 83%. Besides, under setting [3], the EC50 was 5460 nM.

On to `COc1nc(Nc2ccc(C(C)C)cc2)nc(OC)n1` [MMV007808], for which, under setting [6], the “percent_inh @ 5 uM” value is listed as 88%. In addition, the EC50 is 1140 nM under setting [7] and 677 nM under setting [8].

As for `COc1ccc2c(c1)OC(O)(C(F)(F)C(F)(F)F)CC2=O` (stereo not shown) [MMV007839], the EC50 by setting is: under setting [2], 283 nM; under setting [3], 442 nM.

As for `COc1ccc2nc(C)cc(Nc3ccc(Cl)cc3)c2c1` [MMV007875], the “percent_inh @ 2 uM” value under setting [5] was 95%. The EC50 is 2000 nM under setting [9], 1230 nM under setting [3] and 946 nM under setting [10].

As for `CCCCN(CCCC)S(=O)(=O)c1ccc(NC(=O)c2ccco2)cc1` [MMV007881], the “percent_inh @ 5 uM” value under setting [5] was 78%. Also, the EC50 under setting [3] was 1420 nM.

`CCCCOc1ccc(C(=O)Nc2cc(C)on2)cc1` [MMV007906]: under setting [6], the “percent_inh @ 5 uM” value is 73%. In addition, under setting [8], the EC50 was 3160 nM.

Consider `Cc1ccc(Nc2nc(-c3ccccn3)cs2)cc1` [MMV007907], for which, under setting [1], the “percent_inh @ 5 uM” value is 79%. Besides, the EC50 is, setting by setting: under setting [2], 350 nM; under setting [3], 407 nM.

Consider `O=c1nc(C=Cc2ccc(Cl)cc2)oc2ccccc12` [MMV007977], for which the “percent_inh @ 5 uM” value under setting [6] is reported as 76%. In addition, the EC50 under setting [7] was 995 nM.

Consider `CCOc1ccc(CCNC(=O)c2cccs2)cc1OCC` [MMV007978], for which the “percent_inh @ 5 uM” value under setting [5] is 95%. Besides, the EC50 under setting [3] is 890 nM.

As to `CN1CCN(c2c3c(c(C#N)c4nc5ccccc5n24)CCC3)CC1` [MMV008127], the “percent_inh @ 2 uM” value under setting [6] was 42%. Besides, the EC50 was 4000 nM under setting [7] and 1180 nM under setting [8].

Consider `O=C(O)C1Cc2c([nH]c3ccccc23)C(c2ccc(Cl)cc2Cl)N1` (stereo not shown) [MMV008138], for which the EC50 is 350 nM under setting [2], 1020 nM under setting [3] and 954 nM under setting [10].

For `Cc1c(C)n(Cc2ccc(F)cc2)c2ccc(C(=O)NCc3ccco3)cc12` [MMV008149], the “percent_inh @ 5 uM” value under setting [6] is given as 52%. Besides, under setting [8], the EC50 is 78.2 nM.

Consider `CN1C=C(c2ccc3ccccc3n2)C(c2c[nH]c3ccccc23)c2ccccc21` (stereo not shown) [MMV008160], for which the EC50 under setting [4] was 1140 nM.

On to `COc1cc(OC)cc(N2C(=O)N(Cc3ccc(C(C)(C)C)cc3)c3ccccc3S2(=O)=O)c1` [MMV008173], for which the “percent_inh @ 5 uM” value under setting [5] is reported as 97%. Besides, the EC50 reads like this: under setting [9], 1430 nM; under setting [3], 3750 nM.

In the case of `Oc1c2c(nc3cc(-c4ccccc4)nn13)CCCC2` [MMV008270], the “percent_inh @ 5 uM” value under setting [6] is 77%. Under setting [8], the EC50 was 1930 nM.

In the case of `CCOC(=O)c1cnc2c(C)cc(C)cc2c1Nc1ccc(OC)c(OC)c1` [MMV008294], under setting [1], the “percent_inh @ 5 uM” value was 96%. The EC50 under setting [2] was 232 nM and the EC50 under setting [3] was 1780 nM.

Turning to `CCCc1c(CC)c(=N)c2ccccc2n1C` [MMV008416], the “percent_inh @ 5 uM” value under setting [1] is 69%. The EC50 is 242 nM under setting [2] and 762 nM under setting [3].

In the case of `COc1ccc(C2C(C(=O)Nc3cccc(OC)c3)c3ccccc3C(=O)N2C2CCCCC2)cc1` (stereo not shown) [MMV008455], the “percent_inh @ 5 uM” value under setting [5] is 97%. Further, the EC50 under setting [9] is 1180 nM and the EC50 under setting [3] was 1110 nM.

Take `CCN1CCN(c2c(C(=O)c3ccccc3)cnc3cc(OC)c(OC)cc23)CC1` [MMV008474]: the “percent_inh @ 5 uM” value under setting [5] is 59%. For the same compound, the EC50 under setting [3] was 3020 nM.

`CCCn1c(=N)c(C(=O)NC2CCCCC2)cc2c(=O)n3cccc(C)c3nc21` [MMV008829]: the EC50 under setting [4] was 460 nM.

In the case of `CCOc1cc2c(cc1OCC)C(c1cc(OC)c(O)cc1Cl)NCC2` (stereo not shown) [MMV008956], under setting [1], the “percent_inh @ 5 uM” value is recorded as 98%. The EC50 under setting [2] is 370 nM, the EC50 under setting [3] is 362 nM and the EC50 under setting [10] is 748 nM.

Take `O=C(CCc1ccccc1)c1ccccc1OCC(O)CN1CCCCC1` (stereo not shown) [MMV009015]: the EC50 under setting [4] was 881 nM.

For `CCN(CC)c1ccc(NC(=O)c2cccs2)cc1` [MMV009060], the “percent_inh @ 5 uM” value under setting [6] was 88%. Moreover, under setting [8], the EC50 is 414 nM.

On to `OC(CNC1CCCCC1)Cn1c2ccccc2c2ccccc21` (stereo not shown) [MMV009063], for which the “percent_inh @ 5 uM” value under setting [1] is given as 93%. In addition, the EC50 was 293 nM under setting [2], 483 nM under setting [3] and 991 nM under setting [10].

As to `O=C1c2ccc3c4c(ccc(c24)C(=O)N1CCCCO)C(=O)N(CCCCO)C3=O` [MMV009085], the EC50 under setting [4] was 354 nM.

In the case of `CCN(CC)S(=O)(=O)c1ccc(-c2csc(Nc3ccc(C)c(C)c3)n2)cc1` [MMV009108], the “percent_inh @ 5 uM” value under setting [6] is 97%. The EC50 is 641 nM under setting [7] and 2100 nM under setting [8].

Consider `CC1CCN(Cc2c(O)ccc3cc(-c4nc5ccccc5s4)c(=O)oc23)CC1` [MMV009127], for which the “percent_inh @ 5 uM” value under setting [5] is given as 91%. In addition, the EC50 is 1130 nM under setting [9] and 12500 nM under setting [3].

Turning to `Cc1cc(Nc2ccc3ccccc3c2)n2ncnc2n1` [MMV011099], the EC50 under setting [2] was 242 nM and the EC50 under setting [10] is 173 nM.

On to `Cc1cc(Nc2ccc(Cl)cc2)n2nc(C(F)(F)F)nc2n1` [MMV011256], for which the EC50 was 212 nM under setting [2] and 117 nM under setting [10].

`Cc1cc(C)cc(Nc2cc(C)nc3nc(C(F)(F)F)nn23)c1` [MMV011259]: under setting [2], the EC50 is 85.7 nM.

On to `CC(C)(C)c1ccc(C2CC3=Nc4ccccc4N(C(=O)c4ccccc4Cl)C(c4ccc(F)cc4)C3=C(O)C2)cc1` (stereo not shown) [MMV011436], for which, under setting [4], the EC50 is 2630 nM.

Regarding `COC(=O)c1ccc(C2C3=C(O)CC(c4ccc(F)cc4)CC3=Nc3ccccc3N2C(=O)c2ccccc2)cc1` (stereo not shown) [MMV011438], the EC50 under setting [4] was 332 nM.

Take `COc1ccc(C(=O)Nc2nonc2-c2ccc(OC)c(OC)c2)cc1Cl` [MMV011567]: the “percent_inh @ 5 uM” value under setting [1] was 92%. Further, the EC50 was 516 nM under setting [2], 1780 nM under setting [3] and 675 nM under setting [10].

In the case of `CCOC(=O)C1CCN(C(=O)CN2C(=O)c3ccccc3C2c2c[nH]c3ccccc23)CC1` (stereo not shown) [MMV011576], the “percent_inh @ 5 uM” value under setting [5] is on record as 98%. Further, the EC50 is 1180 nM under setting [9] and 519 nM under setting [3].

Consider `Oc1ccccc1CN1CCN(C(c2ccccc2)c2ccccc2)CC1` [MMV011795], for which the “percent_inh @ 5 uM” value under setting [6] was 97%. Besides, the EC50 under setting [7] was 611 nM.

Consider `Oc1ccc2ccccc2c1CNc1nc2ccccc2[nH]1` [MMV011832], for which, under setting [4], the EC50 was 652 nM.

In the case of `Nc1ccc(-c2nc3cc(Oc4ccc(Oc5ccc6[nH]c(-c7ccc(N)cc7)nc6c5)cc4)ccc3[nH]2)cc1` [MMV011895], the EC50 under setting [4] was 288 nM.

Consider `COc1cccc(Nc2nc(NCCO)c3ccccc3n2)c1` [MMV011944], for which the EC50 under setting [7] was 854 nM.

In the case of `Cc1cc(NC(=O)c2ccc(-c3ccccc3)cc2)no1` [MMV018984], the “percent_inh @ 5 uM” value under setting [6] is 95%. Moreover, the EC50 reads like this: under setting [7], 693 nM; under setting [8], 1020 nM.

`COCCNCC(O)Cn1c2ccc(Cl)cc2c2cc(Cl)ccc21` (stereo not shown) [MMV019017]: the EC50 reads like this: under setting [7], 1010 nM; under setting [8], 52 nM.

With `COc1cccc(-c2nn(C)c3sc(C(=O)NCCN4CCN(c5ccccc5F)CC4)cc23)c1` [MMV019064], the “percent_inh @ 5 uM” value under setting [6] is 91%. In addition, the EC50 under setting [7] was 1300 nM and the EC50 under setting [8] is 955 nM.

In the case of `COc1ccccc1CNC(=O)CCn1c(=O)[nH]c2ccsc2c1=O` [MMV019066], the “percent_inh @ 5 uM” value under setting [1] is on record as 67%. Further, the EC50 runs as follows: under setting [2], 140 nM; under setting [10], 1040 nM.

In the case of `CCN1CCN(c2cc(C)c3cc(NC(=O)c4ccc(OC)c(OC)c4)ccc3n2)CC1` [MMV019074], the “percent_inh @ 5 uM” value under setting [6] is 99%. For the same compound, under setting [8], the EC50 is 1030 nM.

With `Cc1cccc(Nc2nc(N)c3ccccc3n2)c1` [MMV019110], under setting [1], the “percent_inh @ 2 uM” value is given as 97%. For the same compound, the EC50 under setting [2] was 400 nM and the EC50 under setting [10] was 574 nM.

`CCN(Cc1ccccc1)C1CCN(Cc2cc(Br)ccc2O)CC1` [MMV019127]: under setting [6], the “percent_inh @ 5 uM” value is listed as 97%. Moreover, the EC50 was 625 nM under setting [7] and 823 nM under setting [8].

Take `COc1cccc(Nc2nc(N)c3ccccc3n2)c1` [MMV019199]: under setting [4], the EC50 is 934 nM.

Consider `O=C(Nc1ccc(-c2nc3cc4ccccc4cc3[nH]2)cc1)c1cccc(Br)c1` [MMV019241], for which, under setting [5], the “percent_inh @ 5 uM” value was 93%. For the same compound, the EC50 by setting is: under setting [9], 450 nM; under setting [10], 363 nM.

Regarding `COc1ccc(-n2ccnc2SCC(=O)Nc2cc(C)ccc2C)c(OC)c1` [MMV019258], under setting [1], the “percent_inh @ 5 uM” value is 95%. The EC50 is 170 nM under setting [2] and 205 nM under setting [10].

As for `Cc1sc2ncnc(Sc3nc4ccccc4[nH]3)c2c1C` [MMV019266], under setting [5], the “percent_inh @ 5 uM” value is on record as 100%. The EC50 under setting [9] is 614 nM and the EC50 under setting [10] was 255 nM.

Take `Cn1c(=O)c2cc(C(=O)NCCCN3CCCCCC3)sc2c2ccccc21` [MMV019313]: under setting [6], the “percent_inh @ 5 uM” value is 97%. The EC50 was 669 nM under setting [7] and 689 nM under setting [8].
